Measurements published in patent US20130096067A1, “DROSOPHILA TUMOR STEM CELL MODEL AND USES THEREOF” (priority 2011, published 2013).
Like-named read-outs stand apart in the source and are kept apart here.

System: Raf-1^gof intestinal tumors
Conditions: for Log2 (fold) (luciferase activity, log2 of the fold difference relative to DMSO controls) / Fold (luciferase activity, fold difference relative to DMSO controls): screen of 480 ICCB compounds in vials, compounds fed to flies with one-day old Raf-1^gof tumors, esg-Gal4 luciferase
[1] = ICCB compounds fed in vials to flies with one-day old Raf-1^gof tumors, assessed three days later
[2] = ICCB compounds fed in vials to flies with one-day old Raf-1^gof tumors, assessed three days later, averaged from multiple wells
[3] = assessed three days later, averaged from multiple wells
Also: test concentration or dose not given here.

Molecule | Log2 (fold) of luciferase activity relative to DMSO controls [1] | Fold (luciferase activity relative to DMSO controls) [2] [fold] | Log2 (fold) (luciferase activity, log2 of the fold difference relative to DMSO controls) (assessed three days later) | Fold (luciferase activity, fold difference relative to DMSO controls) [3] | further results
CCCCCC(=O)/C=C/C=C\CCCCCCCC(=O)O [13-KETOOCTADECADIENOIC ACID] | 0.320 | 1.248 |  |  | 
FC(F)(F)c1ccccc1-n1ccnc1 [TRIM] | −0.160 | 0.895 |  |  | 
CCCCCCCCCCCCCCCC(=O)NCCO [PALMITYLETHANOLAMIDE] |  |  | −0.486 | 0.714 | 
COc1cccc2c1C(=O)c1c(O)c3c(c(O)c1C2=O)C[C@@](O)(C(=O)CO)C[C@@H]3O[C@H]1C[C@H](N)[C@H](O)[C@H](C)O1 [doxorubicin] |  |  | −0.520 | 0.697 | 
CN(C)c1ccc(/C=C2\C(=O)Nc3ccccc32)cc1 [SU-4312] | 0.118 | 1.085 |  |  | 
COc1ccc(C[C@H](N)C(=O)N[C@H]2[C@@H](O)[C@H](n3cnc4c(N(C)C)ncnc43)O[C@@H]2CO)cc1 [puromycin] | 0.281 | 1.215 |  |  | 
C[S+]([O-])c1ccc(-c2nc(-c3ccc(F)cc3)c(-c3ccncc3)[nH]2)cc1 (centres unmarked) [SB 203580] |  |  |  |  | Fold (luciferase activity relative to DMSO controls) (in vivo): 1.036 fold; Log2 (fold) of luciferase activity relative to DMSO controls (in vivo): 0.051
CCCCC[C@@H](/C=C/C=C\CCCCCCCC(=O)O)OO [13(S)-HPODE] | 0.309 | 1.239 |  |  | 
CCCCC/C=C\CC1OC1C/C=C\C/C=C\CCCC(=O)O (centres unmarked) [11,12-EPOXYEICOSATRIENOIC ACID] | −0.052 | 0.965 |  |  | 
Nc1nc2c(nc(Br)n2[C@@H]2O[C@@H]3COP(=O)(O)O[C@H]3[C@H]2O)c(=O)[nH]1 [Bromo-cGMP [8-Bromo-cGMP]] | 0.021 | 1.015 |  |  | 
Fc1ccc(C(c2ccc(F)cc2)N2CCN(C/C=C/c3ccccc3)CC2)cc1 [FLUNARIZINE] |  |  | −0.836 | 0.560 | 
CCCCC[C@H](O)/C=C/[C@@H]1[C@@H](C/C=C\CCCC(=O)O)[C@@H](O)C[C@H]1O [PROSTAGLANDIN F2a] |  |  | −0.450 | 0.732 | 
COc1cc(/C=C(\C#N)C(N)=O)cc(CSc2nc3ccccc3s2)c1O [tyrphostin AG-825] | −0.042 | 0.972 |  |  | 
CCCCC/C=C/C=C1/C(=O)C=C[C@@H]1C/C=C\CCCC(=O)O [15d-Prostaglandin J2] | 0.294 | 1.226 |  |  | 
COC1=CC(=O)O[C@@H](/C=C/c2ccccc2)C1 (racemic) [Kavain (+/−)] |  |  | −0.357 | 0.781 | 
Clc1ccc(C2CC3CCC2N3)cn1 (racemic) [epibatidine (+/−)] |  |  | −0.457 | 0.729 | 
CC1(C)CCC(C)(C)c2cc(C(=O)Nc3ccc(C(=O)O)cc3)ccc21 [AM-580] |  |  | −0.311 | 0.806 | 
CCCCC/C=C\C/C=C\C/C=C\C/C=C\CCCC(=O)NCCO [ANANDAMIDE (20:4, n-6)] | 0.054 | 1.038 |  |  | 
C=CCNC1=C2C[C@@H](C)C[C@H](OC)[C@H](O)[C@@H](C)/C=C(\C)[C@H](OC(N)=O)[C@@H](OC)/C=C\C=C(/C)C(=O)NC(=CC1=O)C2=O [17-Allylamino-geldanamycin] |  |  | −0.433 | 0.741 | 
CC(C)(C)c1cc(/C=C(\C#N)C(N)=S)cc(C(C)(C)C)c1O [AG-879] | 0.902 | 1.869 |  |  | 
CCOc1ccc(-c2nc3ccc(-c4nc5ccc(N6CCN(C)CC6)cc5[nH]4)cc3[nH]2)cc1 |  |  | −0.592 | 0.663 | 
O=C1C(SCCO)=C(SCCO)C(=O)c2ccccc21 [NSC-95397] |  |  | −0.495 | 0.709 | 
CCCC(=O)Nc1ncnc2c1ncn2[C@@H]1O[C@@H]2COP(=O)(O)O[C@H]2[C@H]1OC(=O)CCC [dibutyrylcyclic AMP] |  |  | −0.701 | 0.615 | 

Molecule | Log2 (fold) of luciferase activity relative to DMSO controls [1] | Fold (luciferase activity relative to DMSO controls) [2] [fold] | Log2 (fold) (luciferase activity, log2 of the fold difference relative to DMSO controls) (assessed three days later) | Fold (luciferase activity, fold difference relative to DMSO controls) [3] | further results
O=C(NCC1CCCCN1)c1cc(OCC(F)(F)F)ccc1OCC(F)(F)F (centres unmarked) [FLECAINIDE] |  |  | −0.253 | 0.839 | 
pifithrin | 0.022 | 1.015 |  |  | 
CCCCC/C=C\C\C=C/C=C/C=C/[C@@H](SC[C@H](N)C(=O)O)[C@@H](O)CCCC(=O)O [LEUKOTRIENE E4] |  |  | −0.439 | 0.737 | 
C=C1/C(=C\C=C2/CCC[C@]3(C)[C@@H]([C@H](C)CCCC(C)(C)O)CC[C@@H]23)C[C@@H](O)C[C@@H]1O [1,25-DIHYDROXYVITAMIN D3] | 0.677 | 1.599 |  |  | 
c1ccc(C2CC2)c(OCC2=NCCN2)c1 [CIRAZOLINE] | 0.121 | 1.088 |  |  | 
CC1(C)CCC2=C(O1)c1ccccc1C(=O)C2=O [beta-lapachone] | 0.070 | 1.050 |  |  | 
CC(=O)N[C@@H](CSC/C=C(\C)CC/C=C(\C)CC/C=C(\C)CCC=C(C)C)C(=O)O [AGGC] |  |  |  |  | Fold (luciferase activity relative to DMSO controls) (in vivo): 1.001 fold; Log2 (fold) of luciferase activity relative to DMSO controls (in vivo): 0.001
CC/C=C\C/C=C\C/C=C\CCCCCCCCCCCC(=O)O [DOCOSATRIENOIC ACID (22:3 n-3)] | −0.055 | 0.963 |  |  | 
CCCCC[C@H](O)/C=C/C1=C(C/C=C\CCCC(=O)O)C(=O)CC1 [PROSTAGLANDIN B2] |  |  | −0.330 | 0.796 | 
COc1ccc([C@@H]2Sc3ccccc3N(CCN(C)C)C(=O)[C@@H]2OC(C)=O)cc1 [DILTIAZEM] | −0.205 | 0.868 |  |  | 
CCOC(=O)CN1C(=O)CC(C[C@@H](O)[C@@H]2C[C@@H](C)C[C@H](C)C2=O)CC1=O [cycloheximide-N-ethylethanoate] | −0.014 | 0.990 |  |  | 
O=C1Nc2ccc(I)cc2/C1=C/c1cc(Br)c(O)c(Br)c1 [GW-5074] |  |  | −0.369 | 0.774 | 
CCCCCCCC/C=C\C/C=C\C/C=C\CCCC(=O)NCCO [MEAD ETHANOLAMIDE] |  |  | −0.322 | 0.800 | 
CC1=C(/C=C/C(C)=C/C=C/C(C)=C\C(=O)O)C(C)(C)CCC1 [13-CIS RETINOIC ACID] | 0.074 | 1.053 |  |  | 
CC(COc1ccccc1)N(CCCl)Cc1ccccc1 (centres unmarked) [Phenoxybenzamine] |  |  | −0.600 | 0.660 | 
CC(C)n1cnc2c(NCc3ccccc3)nc(NCCO)nc21 [N9-Isopropylolomoucine] |  |  | −0.490 | 0.712 | 
NC(=O)c1ccc(-c2nc(-c3ccccn3)c(-c3ccc4c(c3)OCO4)[nH]2)cc1 [SB-431542] | 0.068 | 1.048 |  |  | 
CCCCC[C@H](O)/C=C/C=C\C/C=C\C/C=C\CCCC(=O)O [15(S)-HETE] |  |  | −0.309 | 0.807 | 
Cc1c(C(=O)NN2CCCCC2)nn(-c2ccc(Cl)cc2Cl)c1-c1ccc(I)cc1 [AM-251] | 0.065 | 1.046 |  |  | 
COc1cc2nc(N3CCN(C(=O)c4ccco4)CC3)nc(N)c2cc1OC [prazocin] | 0.011 | 1.008 |  |  | 
CC[N+](C)(CC)CCC[n+]1c(-c2ccccc2)c2cc(N)ccc2c2ccc(N)cc21.[I-].[I-] [propidium iodide] | 0.100 | 1.072 |  |  | 
Cn1c2ccccc2c2c3c(c4c5ccccc5n(CCC#N)c4c21)CNC3=O [Go6976] |  |  | −0.287 | 0.819 | 
C[C@H](CCC(=O)O)C[C@H](C)C[C@H](C)C(=O)/C=C(\O)[C@H](C)C[C@H](C)C/C=C/[C@@H](C)[C@@H](O)[C@@H](C)[C@@H](O)C[C@@H]1CC[C@@](C)([C@H]2CC[C@@](C)([C@@H](C)O)O2)O1 [ionomycin] |  |  | −0.591 | 0.664 | 
